Laboratory results published in the supplement of paper PMC10307832.

How the values were obtained:
Assay in all cases: relative viability (nuclei count vs DMSO), 5 days (fraction); higher = more cells survive
Palbociclib = compound: CC(=O)c1c(C)c2cnc(Nc3ccc(N4CCNCC4)cn3)nc2n(C2CCCC2)c1=O [Palbociclib]
Method in brief: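 After an overnight hold at 37 °C, lung cancer cell lines in 1536-well plates were pinned with five library-drug doses (not always all listed), each √10 from the next, on vehicle-anchored plates. The cells stayed 5 days without fresh medium, then a one-step fix, permeabilisation and Hoechst stain preceded 4× imaging and MetaXpress nuclear counts. A plate passed only with control CV under 25% and at least one doubling. Viability is the median, over plates, of treated-well nuclei relative to vehicle-well nuclei.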

Palbociclib + Bortezomib = compound: CC(=O)c1c(C)c2cnc(Nc3ccc(N4CCNCC4)cn3)nc2n(C2CCCC2)c1=O [Palbociclib] + CC(C)C[C@H](NC(=O)[C@H](Cc1ccccc1)NC(=O)c1cnccn1)B(O)O [Bortezomib] (partner 0.002 µM)
Method in brief: (§1)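 After 5 days of treatment, lung cancer cells in 1536-well plates were fixed and stained in a single step (final 0.05% Triton X-100, 1% formaldehyde, 1 ug/ml Hoechst) and their nuclei counted on 4× images. Treatment had been applied by pin tool the day after seeding as one drug alone or as a fixed anchor-drug dose with five library-drug doses (not always all listed) in √10 steps. Relative viability is the nuclei count of treated wells divided by that of vehicle wells, and values are medians of duplicate plates.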

Palbociclib + Pemetrexed = compound: CC(=O)c1c(C)c2cnc(Nc3ccc(N4CCNCC4)cn3)nc2n(C2CCCC2)c1=O [Palbociclib] + Nc1nc2[nH]cc(CCc3ccc(C(=O)N[C@@H](CCC(=O)O)C(=O)O)cc3)c2c(=O)[nH]1 [Pemetrexed] (partner 0.2 µM)
Method in brief: as §1

Cell Line | relative viability (Palbociclib; 0.01 µM) | relative viability (Palbociclib; 0.03162 µM) | relative viability (Palbociclib; 0.1 µM) | relative viability (Palbociclib; 0.3162 µM) | relative viability (Palbociclib; 0.5 µM, anchor plate) | relative viability (Palbociclib; 1 µM) | relative viability (Palbociclib + Bortezomib; first compound 0.01 µM) | relative viability (Palbociclib + Bortezomib; first compound 0.03162 µM) | relative viability (Palbociclib + Bortezomib; first compound 0.1 µM) | relative viability (Palbociclib + Bortezomib; first compound 0.3162 µM) | relative viability (Palbociclib + Bortezomib; first compound 1 µM) | relative viability (Palbociclib + Pemetrexed; first compound 0.01 µM) | relative viability (Palbociclib + Pemetrexed; first compound 0.1 µM) | relative viability (Palbociclib + Pemetrexed; first compound 0.3162 µM) | relative viability (Palbociclib + Pemetrexed; first compound 1 µM) | relative viability (Palbociclib + Pemetrexed; first compound 0.03162 µM)
ChaGo-K-1 | 1.02 | 0.778 | 1.04 | 1.02 | 0.939 | 1.02 | 1.11 | 0.828 | 1.02 | 1.14 | 1.11 | 0.259 | 0.261 | 0.257 | 0.26 | 
NCI-H1915 | 1.01 | 0.695 | 0.973 | 0.902 | 0.527 | 0.756 | 1.02 | 0.684 | 0.921 | 0.947 | 0.778 | 0.494 | 0.446 | 0.413 | 0.331 | 
NCI-H1650 | 0.928 | 0.734 | 0.77 | 0.726 | 0.359 | 0.487 | 0.229 | 0.227 | 0.176 | 0.187 | 0.215 | 0.373 | 0.302 | 0.293 | 0.231 | 0.316
NCI-H2126 | 0.996 | 0.649 | 0.792 | 0.694 | 0.353 | 0.464 | 1.1 | 0.91 | 0.925 | 0.801 | 0.599 | 0.725 | 0.509 | 0.51 | 0.345 | 0.581
LCLC-103H | 1 | 0.762 | 0.858 | 0.833 | 0.469 | 0.537 | 1.2 | 0.957 | 0.967 | 0.87 | 0.649 | 0.432 | 0.484 | 0.443 | 0.412 | 0.495
HCC-15 | 0.986 |  | 0.915 | 0.828 | 0.717 | 0.732 | 1.1 |  | 0.929 | 0.833 | 0.737 | 0.217 | 0.246 | 0.247 | 0.227 | 
NCI-H838 | 1.06 | 0.833 | 0.761 | 0.816 | 0.232 | 0.353 | 0.725 | 0.8 | 0.67 | 0.694 | 0.275 | 0.354 | 0.242 | 0.29 | 0.18 | 0.234
LOU-NH91 | 1.09 | 0.661 | 0.723 | 0.702 | 0.529 | 0.608 | 0.458 | 0.439 | 0.441 | 0.446 | 0.489 | 0.384 | 0.462 | 0.492 | 0.439 | 0.396
LXF-289 | 1.01 | 0.878 | 0.928 | 0.899 | 0.593 | 0.796 | 0.997 | 0.933 | 0.971 | 0.852 | 0.677 | 0.887 | 0.793 | 0.793 | 0.681 | 0.733
NCI-H1666 | 1 | 0.86 | 0.873 | 0.836 | 0.632 | 0.582 | 0.924 | 0.787 | 0.709 | 0.599 | 0.429 | 0.802 | 0.798 | 0.772 | 0.638 | 0.822
NCI-H460 | 0.974 | 0.81 | 0.912 | 0.864 | 0.199 | 0.532 | 1.11 | 0.937 | 0.909 | 0.745 | 0.172 | 0.0576 | 0.0631 | 0.0663 | 0.057 | 0.0539
SW 1573 | 0.994 | 0.789 | 0.8 | 0.723 | 0.419 | 0.617 | 1.15 | 0.928 | 0.985 | 0.842 | 0.506 | 0.773 | 0.646 | 0.681 | 0.461 | 0.729
NCI-H2228 | 1.01 | 0.844 | 0.937 | 0.899 | 0.85 | 0.795 | 1.08 | 0.871 | 0.88 | 0.875 | 0.89 | 0.312 | 0.337 | 0.341 | 0.346 | 0.352
